Assay results from patent US7368424B2, “Acylated nonadepsipeptides” (AiCuris GmbH & Co. KG, priority 2003, dated 2008).
Where two headings read alike, the source gives them in different places. *1 amine or outer side, *2 acyl side, *3 side chain or, on linkers, in order; H or OH if unused. Where a SMILES comes first, the peptide text is derived from it. Bridges are numbered along the chain shown (N, C = ends). [ ]: non-standard residue; d: D form. The star is where a group is joined. ξ: configuration not given here. Phe(3R-OH) = O=C([C@@H](N[*:1])[C@H](O[*:3])c1ccccc1)[*:2]; Asn(3S-OH) = NC(=O)[C@@H](O)[C@H](N)C(=O)O; Leu(3R-OH) = CC(C)[C@@H](O)[C@H](N)C(=O)O; d(tBuAla) = CC(C)(C)C[C@@H](N)C(=O)O; tBuAla = CC(C)(C)C[C@H](N)C(=O)O; aThr = C[C@H](O)[C@H](N)C(=O)O; ξIle = CC[C@H](C)C(N)C(=O)O; Ac6c = NC1(C(=O)O)CCCCC1; Cbz = O=C(OCc1ccccc1)*; OtBu = CC(C)(C)O*

Assays:
[1] = system: Staphylococcus aureus 133; format: cell-based
Experimental: (§1) Determination of the Minimum Inhibitory Concentration (MIC):
(§2) The MIC is determined in the liquid dilution test in accordance with the NCCLS guidelines. Overnight cultures of Staphylococcus aureus 133, Enterococcus faecalis 27159, E. faecium 4147 and Streptococcus pneumoniae G9a are incubated with the desired test substances in a 1:2 dilution series. The MIC determination is carried out with a cell count of 10^5 microbes per ml in Isosensitest medium (Difco, Irvine/USA), with the exception of S. pneumoniae which is tested in BHI broth (Difco, Irvine/USA) with 10% bovine serum with a cell count of 10^6 microbes per ml. The cultures are incubated at 37° C. for 18-24 hours, S. pneumoniae in the presence of 10% CO2.
(§3) The MIC is defined as the lowest concentration of each substance at which visible bacterial growth no longer occurs. The MIC values are reported in μg/ml.

[2] = system: Streptococcus pneumoniae G9a; format: cell-based
Experimental: as §1, §2, §3

E. faecalis ICB 27159 = format: cell-based, Enterococcus faecalis
Experimental: as §1, §2, §3

E. faecium L4001 = format: cell-based, Enterococcus faecium
[3] = Isosensitest medium, 10^5 microbes per ml, 37° C., 18-24 hours
[4] = BHI broth with 10% bovine serum, 10^6 microbes per ml, 10% CO2, 37° C., 18-24 hours

Structure (SMILES)	MIC S. aureus 133 [1, 3] [µg/mL]	MIC S. pneumoniae [2, 4] [µg/mL]	MIC E. faecalis ICB 27159 (E. faecalis ICB 27159; [3]) [µg/mL]	MIC E. faecium L4001 (E. faecium L4001; [3]) [µg/mL]	MIC S. aureus 133 [1]; 133 [µg/mL]	MIC S. pneumoniae ([2]; G9a) [µg/mL]	MIC E. faecalis ICB 27159 (E. faecalis ICB 27159; ICB 27159) [µg/mL]	MIC E. faecium L4001 (E. faecium L4001; L4001) [µg/mL]
CC[C@H](C)C1NC(=O)[C@@H](CCCNC(=N)N)NC(=O)[C@H](CC(C)C)NC(=O)[C@H]([C@H](O)C(C)C)NC(=O)[C@@H](NC(=O)[C@H](CC(=O)OC(C)(C)C)NC(=O)[C@H](N)CC(C)(C)C)[C@@H](c2ccccc2)OC(=O)[C@H](CO)NC(=O)[C@H]([C@H](O)C(N)=O)NC(=O)CNC(=O)[C@H]([C@H](C)O)NC1=O.O=C(O)C(F)(F)F.O=C(O)C(F)(F)F (stereo partly drawn) [Example 101, (2S)-2-[(3-tert-Butyl-D-alanyl)amino]-4-tert-butoxy-4-oxobutanoyl-de(1-D-leucyl-2-L-leucyl)lysobactin bistri-fluoroacetate] (H-[d(tBuAla)]D(OtBu)[Phe(3R-OH)][Leu(3R-OH)]L[dR][ξIle][aThr]G[Asn(3S-OH)]S; ester 3-C)	1	0.5	1	1	–	–	–	–
CC[C@H](C)C1NC(=O)[C@@H](CCCNC(=N)N)NC(=O)[C@H](CC(C)C)NC(=O)[C@H]([C@H](O)C(C)C)NC(=O)[C@@H](NC(=O)[C@H](CC(C)(C)C)NC(=O)C2(N)CCCCC2)[C@@H](c2ccccc2)OC(=O)[C@H](CO)NC(=O)[C@H]([C@H](O)C(N)=O)NC(=O)CNC(=O)[C@H]([C@H](C)O)NC1=O.O=C(O)C(F)(F)F.O=C(O)C(F)(F)F (stereo partly drawn) [Example 105, N-[(1-Aminocyclohexyl)carbonyl]-(3-tert-butyl-D-alanyl)-de(1-D-leucyl-2-L-leucyl)lysobactin bistri-fluoroacetate] (H-[Ac6c][tBuAla][Phe(3R-OH)][Leu(3R-OH)]L[dR][ξIle][aThr]G[Asn(3S-OH)]S; ester 3-C)	0.5	0.063	1	0.5	–	–	–	–
CC[C@H](C)C1NC(=O)[C@@H](CCCNC(=N)N)NC(=O)[C@H](CC(C)C)NC(=O)[C@H]([C@H](O)C(C)C)NC(=O)[C@@H](NC(=O)[C@H](CCCCNC(=O)OCc2ccccc2)NC(=O)[C@H](N)CC(C)(C)C)[C@@H](c2ccccc2)OC(=O)[C@H](CO)NC(=O)[C@H]([C@H](O)C(N)=O)NC(=O)CNC(=O)[C@H]([C@H](C)O)NC1=O.O=C(O)C(F)(F)F.O=C(O)C(F)(F)F (stereo partly drawn) [Example 107, {(3-tert-Butylalanyl)-[N^6-(benzyloxycarbonyl)lysyl]}-de(1-D-leucyl-2-L-leucyl)lysobactin bistrifluoroacetate] (H-[d(tBuAla)]K(Cbz)[Phe(3R-OH)][Leu(3R-OH)]L[dR][ξIle][aThr]G[Asn(3S-OH)]S; ester 3-C)	–	–	–	–	0.25	0.25	1	0.5
